Test results taken from publication PMC9977398, “Next-generation membrane-active glycopeptide antibiotics that also inhibit bacterial cell division” (Chemical Science, 2023).

Columns and labels:
persister cells of MRSA = assay: Bactericidal activity against persister cells; type: cell-based, S. aureus
Procedure: Persister cells are a subpopulation of bacterial cultures that are refractory to antibiotic treatment.[28] […] This activity was more rapid than that observed against stationary phase cells. […]
from 10 μg/mL. The bacteria with compounds and untreated control were incubated for 18 h at 37 ̊C under shaking and OD600 was measured.
Microscopy of ΔamiAC MG1655 E. coli
ΔamiAC MG1655 was cultured overnight in LB media at 37 ̊C. Cells were then inoculated in LB media at 1:100 dilution ratio and made to grow till O.D600 0.1. The cells were then treated with 4 μg/mL concentration of vancomycin and VanQAmC10 or left untreated for 2 h. 6 μl of sample was immobilized on 1% agarose pad and microscopy was performed as described above. The experiments were performed three times independently and the images are representative of results from three independent experiments. […]
MRSA ATCC 33591 was grown to mid-log phase at 37 °C. […] The viable bacteria were then counted after 48 h incubation at 37 °C. […]
Antagonization of antibacterial activity of AAV-qC10 was determined by addition of 500 μM N,N՛-diacetyl–L-Lys–D-Ala–D-Ala or 100 μg/mL of lipoteichoic acid to serial dilutions of the test compound. The MIC was then determined against MRSA by measuring the OD600 18-24 […]
Vancomycin was chosen as control antibiotic for MRSA. The initial MIC values of VanQAmC10, vancomycin were determined against the respective bacteria. […]

[1] = tested on: GFP-FtsZ expressing E. coli; assay: GFP-FtsZ localization and morphology; type: cell-based; details: 15 μM
Procedure: The FtsZ protein assembles into a membrane-associated ring structure at the division septum. It recruits other proteins for the progression and completion of cell division.[34] The effect of VanQAmC10 on the localization of FtsZ and morphology in E. coli producing green fluorescent protein (GFP)-tagged FtsZ was studied through microscopy (Fig. 5B). The cells were treated with IPTG to overexpress gfp-ftsZ and then either treated with compounds or left untreated. Upon treatment with 15 μM of VanQAmC10, the cells appear to be filamentous with variable lengths of up to 4 μm, while cells in the control group were ∼2.5 μm long. Incubation with VanQAmC10 for a longer time (130 minutes) results in bulkier filamentous cells, with severely distorted shapes (Fig. S4 ^†). […] IPTG-treated cells formed minicells of ∼1.5 μm length, which is characteristic of cells overproducing FtsZ.[35] Known inhibitors of FtsZ alter the regular midcell distribution of Z-rings.[36] […]
resuspended in prewarmed BMM media. […] The fluorescence in the GFP and Texas red channels was then observed under the microscope. […]
About 6 μl of sample was immobilized on 1% agarose pad . DIC and fluorescence images were obtained at different time intervals using Nikon Eclipse Ti Microscope equipped with Nikon DS-U3 camera through Plan Apo 100×/1.40 oil objective. […]

CCCCCCCCCCNC(=O)C[N+](C)(C)CCCNC(=O)C1NC(=O)C2NC(=O)C(NC(=O)C3NC(=O)C(CC(N)=O)NC(=O)C(NC(=O)C(CC(C)C)NC)C(O)c4ccc(c(Cl)c4)Oc4cc3cc(c4OC3OC(CO)C(O)C(O)C3OC3CC(C)(N)C(O)C(C)O3)Oc3ccc(cc3Cl)C2O)c2ccc(O)c(c2)-c2c(O)cc(O)cc21 (stereo not drawn) [VanQAmC10 (8)]
activity against persister cells (persister cells of MRSA): concentration-dependent bactericidal activity | localization and distribution of Z-rings [1]: remain unaltered | length of filamentous cells ([1]; 40 min, control cells ∼2.5 μm): up to 4 μm
